Measurements: US6875761B2 (Eisai Co., Ltd., priority 1997, dated 2005)
Where a name gives a salt, the structure may show the parent alone. Read-outs that look alike come from different tables or passages of the source.

What was measured:
serotonin 1A receptor = biological target: T1, serotonin 1A receptor (Rattus norvegicus, UniProt P19327); test: Binding test on [3H] 8-hydroxy-dipropylaminotetralin, hippocampus receptor fraction; set-up: species or system SD rats
T1 construct: To the receptor fraction of the hippocampus were added a test compound and 0.5 nM of [^3H]; 8-hydroxy-dipropylaminotetralin; from tissue; host or cells: rat hippocampus membrane fraction
T1 sequence (P19327 1-422): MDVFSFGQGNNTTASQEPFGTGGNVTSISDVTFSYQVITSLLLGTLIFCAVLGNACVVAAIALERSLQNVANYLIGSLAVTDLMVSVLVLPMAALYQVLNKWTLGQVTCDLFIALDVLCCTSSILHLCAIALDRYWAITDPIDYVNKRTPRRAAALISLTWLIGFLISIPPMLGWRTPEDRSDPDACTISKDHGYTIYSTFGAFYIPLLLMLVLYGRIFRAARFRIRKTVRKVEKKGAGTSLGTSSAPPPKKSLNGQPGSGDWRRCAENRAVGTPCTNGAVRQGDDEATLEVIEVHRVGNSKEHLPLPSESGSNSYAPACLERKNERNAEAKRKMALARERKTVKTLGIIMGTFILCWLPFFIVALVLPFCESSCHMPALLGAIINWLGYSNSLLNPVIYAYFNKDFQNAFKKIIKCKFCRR

serotonin 2 receptor = biological target: T2, serotonin 2 receptor (Rattus norvegicus, UniProt P14842); test: Binding test on [3H] ketanserin, cerebral cortex receptor fraction; set-up: species or system SD rats; conditions: 0.3 nM [3H] ketanserin, 37° C. 15 min, read-out: 5HT2
T2 construct: To the receptor fraction of the cerebral cortex were added a test compound and 0.3 nM of [^3H] ketanserin; from tissue; host or cells: rat cerebral cortex membrane fraction

[1] = rat hippocampus receptor fraction, 0.5 nM [3H] 8-OH-DPAT, room temperature 30 min, read-out: 5HT1

T2 sequence (P14842 whole entry): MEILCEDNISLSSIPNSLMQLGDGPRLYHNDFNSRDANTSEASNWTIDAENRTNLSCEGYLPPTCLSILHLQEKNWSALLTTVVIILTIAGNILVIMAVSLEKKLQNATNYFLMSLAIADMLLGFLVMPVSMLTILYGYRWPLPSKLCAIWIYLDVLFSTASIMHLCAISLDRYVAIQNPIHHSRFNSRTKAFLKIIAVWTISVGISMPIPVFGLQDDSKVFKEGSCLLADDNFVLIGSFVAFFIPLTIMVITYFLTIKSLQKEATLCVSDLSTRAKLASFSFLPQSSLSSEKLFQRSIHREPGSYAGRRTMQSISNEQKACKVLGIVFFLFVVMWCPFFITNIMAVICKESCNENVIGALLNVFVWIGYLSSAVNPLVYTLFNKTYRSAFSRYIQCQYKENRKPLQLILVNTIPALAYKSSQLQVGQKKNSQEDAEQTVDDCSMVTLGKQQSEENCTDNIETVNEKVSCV

| Compound | Ki (serotonin 1A receptor; [1]) [nM] | Ki (serotonin 2 receptor) [nM] | Ki (serotonin 1A receptor) [nM] |
| --- | --- | --- | --- |
| CCN1CCN(c2nc(-c3cc(OCCO)cc(OCCO)c3)cc3ccccc23)CC1 [Example 38, 3-[3,5-di(2-hydroxyethoxy)phenyl]-1-(4-ethylpiperazin-1-yl)isoquinoline hydrochloride] | 20.8 | 75.7 |  |
| CCN1CCN(c2nc(-c3ccc(OCCO)c(Cl)c3)cc3ccccc23)CC1 [Example 39, 3-[3-chloro-4-(2-hydroxyethoxy)phenyl]-1-(4-ethylpiperazin-1-yl)isoquinoline hydrochloride] | 26 | 4.9 |  |
| CCN1CCN(c2nc(-c3ccc(OCCO)c(C)c3)cc3ccccc23)CC1 [Example 40, 3-[3-methyl-4-(2-hydroxyethoxy)phenyl]-1-(4-ethylpiperazin-1-yl)isoquinoline hydrochloride] | 26.7 | 3.1 |  |
| CCN1CCN(c2nc(-c3ccc(OCCO)c(C(C)C)c3)cc3ccccc23)CC1 [Example 41, 3-[3-isopropyl-4-(2-hydroxyethoxy)phenyl]-1-(4-ethylpiperazin-1-yl)isoquinoline hydrochloride] | 40.1 | 45.6 |  |
| CCN1CCN(c2nc(-c3ccc(OCCOC)c(OCCOC)c3)cc3ccccc23)CC1 [Example 43, 3-[3,4-Di(2-Methoxyethoxy)Phenyl]-1-(4-Ethylpiperazin-1-Yl)Isoquinoline Hydrochloride] | 29.3 | 66.6 |  |
| CCN1CCN(c2nc(-c3ccc(COCCO)cc3)cc3ccccc23)CC1 [Example 44, 3-[4-(2-Hydroxyethoxylmethylphenyl]-1-(4-ethylpiperazin-1-Yl)Isoquinoline Hydrochloride] | 55.4 | 9 |  |
| CCN1CCN(c2nc(-c3ccc4c(c3)OCO4)cc3ccccc23)CC1 [Example 46, 3-(3,4-Methylenedioxyphenyl)-1-(4-Ethylpiperazin-1-Yl)Isoquinoline Hydrochloride] | 58 | 12.7 |  |
| CCN1CCN(c2nc(-c3ccc(OCC(C)=O)cc3)cc3ccccc23)CC1 [Example 47, 1-(1-Ethylpiperazin-4-Yl)-3-(4-Acetonyloxyphenyl)Isoquinoline] | 25.3 | 2.6 |  |
| CCN1CCN(c2nc(-c3ccc(OCCCNC(C)=O)cc3)cc3ccccc23)CC1 [Example 50, 3-[4-(3-Acetamidepropoxy)Phenyl]-1-(4-Ethylpiperazin-1-Yl)Isoquinoline Hydrochloride] | 25.2 | 21.9 |  |
| CCN1CCN(c2nc(-c3ccc(OCC#N)cc3)cc3ccccc23)CC1 [Example 51, 3-(4-Cyanomethoxyphenyl)-1-(4-Ethylpiperazin-1-Yl)Isoquinoline Hydrochloride] | 103 | 1.87 |  |
| CCN1CCN(c2nc(-c3ccc(OCCCC#N)cc3)cc3ccccc23)CC1 [Example 53, 3-[4-(3-Cyanopropoxy)Phenyl]-1-(4-Ethylpiperazin-1-Yl)Isoquinoline Hydrochloride] | 61.2 | 1.78 |  |
| CCN1CCN(c2nc(-c3ccc(OCCCSC)cc3)cc3ccccc23)CC1 [Example 54, 3-[4-(3-Methylthiopropoxy)Phenyl]-1-(4-Ethylpiperazin-1-Yl)Isoquinoline Hydrochloride] | 62.1 | 4.9 |  |
| CCN1CCN(c2nc(-c3ccc(OCCCS(C)(=O)=O)cc3)cc3ccccc23)CC1 [Example 55, 3-[4-(3-Methylsulfonpropoxy)Phenyl]-1-(4-Ethylpiperazin-1-Yl)Isoquinoline Hydorchloride] | 10.4 | 15.3 |  |
| CCN1CCN(c2nc(-c3ccc(OCCn4ccnc4)cc3)cc3ccccc23)CC1 [Example 56, 3-{4-[2-(1-Imidazonyl)Ethoxy]phenyl}-1-(4-Ethylpiperazin-1-Yl)Isoquinoline Hydrochloride] | 37.4 | 59.5 |  |
| CCN1CCN(c2nc(-c3ccc(OCCCc4ccncc4)cc3)cc3ccccc23)CC1 [Example 57, 3-{4-[3-(4-Pyridyl)Propoxy]Phenyl}-1-(4-Ethylpiperazin-1-Yl)Isoquinoline Hydrochloride] | 57.2 | 4.6 |  |
| CCNC(=O)Oc1ccc(-c2cc3ccccc3c(N3CCN(CC)CC3)n2)cc1 [Example 59] |  | 14.3 | 16.3 |
| CCN1CCN(c2nc(-c3ccc(C#N)cc3)cc3ccccc23)CC1 [Example 62, 3-(4-Cyanophenyl)-1-(4-Ethylpiperazin-1-Yl)Isoquinoline Hydrochloride] | 14.8 | 4 |  |
| CCN1CCN(c2nc(-c3ccc(C4=CCC(O)CC4)cc3)cc3ccccc23)CC1 (centres unmarked) [Example 64, 3-[4-(4-Hydroxy-1-Cyclohexen-1-Yl)Phenyl]-1-(4-Ethylpiperazin-1-Yl)Isoquinoline Hydrochloride] | 87 | 8.5 |  |
| CCN1CCN(c2nc(-c3ccc(N)cc3)cc3ccccc23)CC1 [Example 65, 3-(4-Aminophenyl)-1-(4-Ethylpiperazin-1-Yl)Isoquinoline Hydrochloride] | 60.1 | 33.5 |  |
| CCN1CCN(c2nc(-c3ccc(N(C)C)cc3)cc3ccccc23)CC1 [Example 66, 3-[4-(N,N-Dimethylamino)Phenyl]-1-(4-Ethylpiperazin-1-Yl)Isoquinoline Dihydrochloride] | 52.7 | 21.6 |  |
| CCN1CCN(c2nc(-c3ccc(NCCO)cc3)cc3ccccc23)CC1 [Example 67, 3-[4-(2-Hydroxyethyl)Aminophenyl]-1-(4-Ethylpiperazin-1-Yl)Isoquinoline Hydrochloride] | 27.3 | 6.6 |  |
| CCN1CCN(c2nc(-c3ccc(NC(C)=O)cc3)cc3ccccc23)CC1 [Example 68, 3-(4-Acetamidephenyl)-1-(4-Ethylpiperazin-1-Yl)Isoquinoline Hydrochloride] | 30.9 | 94.1 |  |
| CCN1CCN(c2nc(-c3ccc(S(N)(=O)=O)cc3)cc3ccccc23)CC1 [Example 74, 3-(4-Sulfonamidephenyl)-1-(4-Ethylpiperazin-1-Yl)Isoquinoline Hydrochloride] | 4.6 | 7.7 |  |
| CCN1CCN(c2nc(-c3ccc(S(=O)(=O)N4CCS(=O)(=O)CC4)cc3)cc3ccccc23)CC1 [Example 77, 3-[(1,1-Dioxythiomorpholinyl)Sulfonylphenyl]-1-(4-Ethylpiperazin-1-Yl)Isoquinoline Hydrochloride] | 13.6 | 90.5 |  |

Second part, led by results:

| Ki (serotonin 1A receptor; [1]) [nM] | Ki (serotonin 2 receptor) [nM] | Compound | Ki (serotonin 1A receptor) [nM] |
| --- | --- | --- | --- |
| 17.2 | 17.3 | CCC(=O)Nc1ccc(-c2cc3ccccc3c(N3CCN(CC)CC3)n2)cc1 [Example 69, 3-(4-Ethylcarbonylaminophenyl)-1-(4-Ethylpiperazin-1-Yl)Isoquinoline Hydrochloride] |  |
| 2 | 1.5 | CCN1CCN(c2nc(-c3ccc(NS(=O)(=O)CC)cc3)cc3ccccc23)CC1 [Example 71, 3-(4-Ethylsulfonylaminophenyl)-1-(4-Ethylpiperazin-1-Yl)Isoquinoline Hydrochloride] |  |
| 15 | 3.6 | CCCS(=O)(=O)Nc1ccc(-c2cc3ccccc3c(N3CCN(CC)CC3)n2)cc1 [Example 72, 3-(4-Propylsulfonylaminophenyl)-1-(4-Ethylpiperazin-1-Yl)Isoquinoline Hydrochloride] |  |
| 7.7 | 10 | CCN1CCN(c2nc(-c3ccc(S(=O)(=O)N4CCOCC4)cc3)cc3ccccc23)CC1 [Example 75, 3-[(4-Morpholinyl)Sulfonylphenyl]-1-(4-Ethylpiperazin-1-Yl)Isoquinoline Hydrochloride] |  |
| 5.7 | 8.9 | CCN1CCN(c2nc(-c3ccc(S(=O)(=O)N4CCSCC4)cc3)cc3ccccc23)CC1 [Example 76, 3-[(4-Thiomorpholinyl)Sulfonylphenyl]-1-(4-Ethylpiperazin-1-Yl)Isoquinoline Hydrochloride] |  |
| 0.56 | 1.9 | CCN1CCN(c2nc(-c3ccc(CNS(=O)(=O)CC)cc3)cc3ccccc23)CC1 [Example 78, 3-(4-Ethylsulfonylaminomethylphenyl)-1-(4-Ethylpiperazin-1-Yl)Isoquinoline Hydrochloride] |  |
| 5.8 | 23 | CCN1CCN(c2nc(-c3ccc(CCNS(=O)(=O)CC)cc3)cc3ccccc23)CC1 [Example 79, 3-(4-Ethylsulfonylaminoethylphenyl)-1-(4-Ethylpiperazin-1-Yl)Isoquinoline Hydrochloride] |  |
| 0.8 | 16.3 | CCNS(=O)(=O)Cc1ccc(-c2cc3ccccc3c(N3CCN(CC)CC3)n2)cc1 [Example 80, 3-(4-Ethylaminosulfonylmethylphenyl)-1-(4-Ethylpiperazin-1-Yl)Isoquinoline Hydrochloride] |  |
| 1.1 | 15.1 | CCCNS(=O)(=O)Cc1ccc(-c2cc3ccccc3c(N3CCN(CC)CC3)n2)cc1 [Example 81, 3-(4-Propylaminosulfonylmethylphenyl)-1-(4-Ethylpiperazin-1-Yl)Isoquinoline Hydrochloride] |  |
| 0.2 | 10.8 | CCN1CCN(c2nc(-c3ccc(CS(=O)(=O)N(CC)CC)cc3)cc3ccccc23)CC1 [Example 82, 3-[4-(N,N-diethylamino)sulfonylmethylphenyl]-1-(4-ethylpiperazin-1-yl)isoquinoline Hydrochloride] |  |
